The text below walks through data of patent publication US20220023271A1, “COMPOSITION FOR PREVENTING OR TREATING CELLULAR SENESCENCE-RELATED DISEASES COMPRISING ZOTAROLIMUS AS ACTIVE INGREDIENT” (RESEARCH COOPERATION FOUNDATION OF YEUNGNAM UNIVERSITY, priority 2018, published 2022).

Data set [1] deals with human dermal fibroblasts (HDF). In words: SAβG activity staining in senescent human fibroblasts. Type of data set: cell-based. Conditions: 4 days; for SAβG activity: 100 nM. On the procedure:
Each cell was treated in a serum-free culture solution containing 0.5 μM doxorubicin for 4 hours. After washing the cells with a serum-free culture solution, the cells were cultured for 4 days in a culture solution containing 10% FBS, and then cellular aging was confirmed by staining with senescence-associated beta galactosidase (SAβG). After dispensing 2×10^5 cells in a 100 mm culture dish, they were cultured in a 37° C., 5% CO2 incubator. When the cells grew to 80-90% in the culture dish, the cells were removed by treatment with trypsin-EDTA, and the number of cells was measured, and the cell population doubling time (PDT) was measured. By successively subculturing the cells in the same process as described above, replication aging was induced. PDT of young fibroblasts was 36 hours, PDT of replicative senescent fibroblasts was 12 days, PDT of young vascular endothelial cells was 24 hours, and PDT of replicative senescent vascular endothelial cells was 7 days. After each sample was dissolved in DMSO, young cells, replicative senescent cells, and premature senescent cells treated with doxorubicin were treated with 100 nM zotarolimus, 100 nM rapamycin, 100 nM ABT263, respectively. After incubation for 4 days in a 37° C., 5% CO2 incubator, the degree of cell growth was confirmed by CCK-8 analysis, the degree of cellular aging was confirmed by senescence-related beta-galactosidase (SAβG) staining, The cells were washed with 1× phosphate buffer solution, and fixed with a phosphate buffer solution containing 3.7% (v/v) paraformaldehyde. After adding 1 mg/ml 5-bromo-4-chloro-3-indolyl-6-D-galactoside, 40 mM citric acid-sodium phosphate (pH 6.0), 5 mM potassium ferricyanide, 5 mM potassium ferrocyanide, 150 mM NaCl, and 2 mM MgCl2 solution, it was reacted at 37° C. for 18 hours. It was stained with eosin as a control stain. Cells stained blue in the cytoplasm were identified using an optical microscope. Human fibroblasts were treated with doxorubicin to induce early cellular senescence. […]

Data set [2] deals with renal fibrosis induced by renal ischemia-reperfusion injury. In words: Renal fibrosis induced by renal ischemia-reperfusion injury in mice. It is filed as in vivo, C57BL/6J mice. On the procedure: Animal experiments were performed with the approval of the Animal Experimental Ethics Committee, Yeungnam University College of Medicine (YUMC-AEC2018-024). C57BL/6J 8-week-old male mice were anesthetized by intraperitoneal injection of 2.5% Avertin (0.025 ml/g body weight).
The anesthetized mice were placed on a hot plate at 37° C. and the left flank was incised to expose the left kidney. The renal arteriovenous blood vessels were ligated with a microaneurism clamp (Roboz), and whether the blood vessels were blocked or not was confirmed by the color of the kidneys. During the induction of ischemia, the body temperature of the mice was maintained at 36.5-37.5° C. After 35 minutes, the clamp was removed and it was confirmed that reperfusion occurred.
As a control, renal arteriovenous vessels were not ligated, and the rest was performed in the same manner as above. From 4 days after ischemia-reperfusion injury, 2.5 μl of 10 mM zotarolimus was diluted in 100 μl of phosphate buffer solution at intervals of 2 days and injected into the abdominal cavity 3 times (Zota group). […] Three mice were used for each group.
The left kidney in which ischemia-reperfusion injury was induced, was excised in half and fixed in 10% formalin solution or stored frozen in liquid nitrogen. […]
To confirm the degree of lipid peroxidation in tissues, malondialdehyde (MDA) was confirmed by the TBARS method (Garcia Y J, et al., Journal of neuroscience methods. 2005).
Briefly, 1.4 ml of TBARS solution [0.375% thiobarbituric acid (TBA), 15% trichloroacetic acid (TCA), 0.25 N HCl] was added to the tissue pulverization solution (0.3 mg protein/0.1 ml), and boiled for 15 minutes at 95-100° C. and centrifugation was performed at 4° C. and 12,000 rpm for 10 minutes, and the absorbance of the supernatant was confirmed at 540 nm.
Lipid hydroperoxides were identified by ferrous ion oxidation xylenol orange (FOX) method (Jiang Z Y, et al., Lipids. 1991).
0.9 ml of FOX reagent (100 μM xylenol orange, 25 mM H2SO4, 0.1 M sorbitol, 2.5 mM ferrous ammonium sulfate] was reacted at room temperature for 30 minutes and then centrifuged to measure the absorbance of the supernatant at 570 nm. […]
RIPA buffer was added to the tissue and pulverized with WiseTis homogenizer HG-15D (DAIHAN Scientific, Seoul, South Korea). Centrifugation was performed at 12,000 rpm at 4° C. for 20 minutes, and the supernatant was transferred to a new tube.
The protein concentration of the supernatant was quantified by the BCA method. After electrophoresis (SDS-PAGE) of 30 μg of protein, Western blot analysis was performed. After electrophoresis, the protein was transferred from the gel to a polyvinylidene fluoride membrane (Pall Corporation).
The membrane was treated with a 5% Difco™ skim milk solution (Becton, Dickinson and Company, USA) for 2 hours at room temperature, and the primary antibody was added, followed by reaction at room temperature for 2 hours. As the primary antibody, anti-p53 antibody, anti-p16 antibody, anti-actin antibody, and anti-GAPDH antibody were purchased from Santa Cruz Biotechnology, Inc. Anti-phosphorylated-Rb antibody was obtained from New England Biolabs (Ipswich, Mass., USA), and the anti-SOD2 antibody and anti-catalase antibody were obtained from Bioworld Technology Inc. (Louis Park, Minn., USA), anti-4-HNE antibody, anti-α-smooth muscle actin antibody, and anti-type I collagen antibody were purchased from Abcam (Cambridge, UK).
The membrane treated with the primary antibody was washed three times for 15 minutes each with TBST (20 mM Tris-HCl (pH 8.0), 137 mM NaCl, 0.1% Tween 20), and reacted for 60 minutes by treatment with the secondary antibody.
After washing for at least 60 minutes with TBST, protein expression was confirmed using an ECL detection kit (Elpis Biotech, Daejeon, South Korea).
The tissue fixed in 10% formalin solution was embedded with paraffin and cut into 4 μm to prepare a tissue sample. […]

[3] abbreviates: i.p. 3 times from day 4, vs PBS group.

For the molecule `CO[C@H]1C[C@@H]2CC[C@@H](C)[C@@](O)(O2)C(=O)C(=O)N2CCCC[C@H]2C(=O)O[C@H]([C@H](C)C[C@@H]2CC[C@H](n3cnnn3)[C@H](OC)C2)CC(=O)[C@H](C)/C=C(\C)[C@@H](O)[C@@H](OC)C(=O)[C@H](C)C[C@H](C)/C=C/C=C/C=C/1C` [zotarolimus], the SAβG activity result in data set [1] (premature senescent fibroblasts by doxorubicin, vs DMSO-treated group) is “decreased compared to the DMSO-treated group”. In addition, the “SAβG activity compared with rapamycin” value in data set [1] (replicative senescent fibroblasts, 100 nM each, p<0.05) was “significantly reduced than that of rapamycin”. Besides, the SAβG activity result in data set [1] (replicative senescent fibroblasts, vs DMSO, p<0.01) is given as “significantly reduced”. For the same molecule, in data set [2] (body weight before injury vs 11th day, i.p. 3 times at 2-day intervals, vs Sham group), the weight gain entry is listed as “significantly reduced compared to that of the Sham group”. In data set [2] (setting [3]), the “plasma BUN” value was “decreased” and the plasma creatinine result is “decreased”. Besides, in data set [2] (kidney tissue), the “expression of SOD2” value is on record as “increased”, the expression of catalase result is listed as “increased” and the superoxide entry was “significantly reduced”. For the same molecule, the “damage to the kidney tubules” value in data set [2] (kidney tissue specimen, vs PBS group) is listed as “significantly reduced”. Also, in data set [2] (kidney tissue, vs PBS group), the “degree of lipid oxidation (lipid hydroperoxides and MDA)” value is “significantly reduced”; the “degree of tissue fibrosis by trichrome staining” value is listed as “significantly reduced”; the “expression level of 4-HNE (Western blot)” value is “significantly reduced”; the “expression level of p16 (Western blot)” value is listed as “significantly reduced”. Further, in data set [2] (kidney tissue, vs PBS group), the “expression of p53 (Western blot)” value is recorded as “significantly reduced”, the “expression of pRb (Western blot)” value is recorded as “significantly reduced”, the “expression of type 1 collagen (COL1) (Western blot)” value was “significantly reduced” and the “expression of α-SMA (Western blot)” value is “significantly reduced”. In addition, the “lipofuscin staining intensity (Sudan Black B)” value in data set [2] (kidney tissue, vs PBS group) is given as “significantly reduced”.
